Where two headings read alike, the source gives them in different places.
Experiments:
[1] = tested on: bFGF-induced angiogenic effect; test: Matrigel plug angiogenesis in nude mice, bFGF; type: in vivo
Method: (§1) Nude mice were subcutaneously injected with a Matrigel plug containing 150 ng/mL VEGF or bFGF. Vehicle or Compound 1 was administrated to the mice orally (1 mg/kg/day, 3 mg/kg/day, 10 mg/kg/day, 30 mg/kg/day, or 100 mg/kg/day) for seven days. The angiogenic response was monitored visually through the transparent skin. […] The plugs were removed, fixed in 4% formaldehyde, embedded in paraffin, sectioned at 5-Tm thick for histological analysis, and blood vessel growth quantified by hematoxylin-eosin staining. All photos were taken at 40× magnification.
(§2) In a quantitative analysis of angiogenic effect, nude mice were treated as described above, and the plugs were removed and dissolved. Hemoglobin concentrations were measured using a hemoglobin detection kit (Sigma Chem. Co.) as indices of angiogenesis. Means±S.E. (n=3) were presented (see FIG. 1). Symbol “***” represents P<0.001 that are compared with the control.

[2] = tested on: VEGF-induced tube formation of HUVECs; test: Inhibition of VEGF-induced tube formation of HUVECs on Matrigel; type: cell-based, Human; conditions: 10 TM compound, VEGF 10 ng/mL, Matrigel 10 mg/mL
Method: (§3) HUVECs were cultured onto a chamber slide, which was pre-coated with Matrigel (10 mg/mL). Cells were treated without Compound 1 (control) or with Compound 1 (10 TM). VEGF (10 ng/mL) or bFGF (10 ng/mL) was added to induce tube formation. All photos were taken at 100× magnification.

[3] = tested on: bFGF-induced tube formation of HUVECs; test: Inhibition of bFGF-induced tube formation of HUVECs on Matrigel; type: cell-based, Human; conditions: 10 TM compound, bFGF 10 ng/mL, Matrigel 10 mg/mL
Method: as §3

A549 lung tumor cells = test: Anti-tumor activity, survival of nude mice with A549 lung tumor cells in the pleural space; type: in vivo; conditions: oral 10 mg/kg/day, 10^6 A549 cells in pleural space, FIG. 2
Method: 10^6 A549 lung tumor cells were introduced into the pleural space of nude mice. Compound 1 was administrated to the mice orally (10 mg/kg/day). The survival rates of Compound 1-treated mice and control mice were compared (FIG. 2). The life span (i.e., the medium survival time) of Compound 1-treated mice was about 1.8 times that of control mice, as analyzed by a % T/C value [(median survival time of treatment/median survival time of control)×100].

[4] = tested on: VEGF-induced cell proliferation of HUVECs; test: Inhibition of VEGF-induced DNA synthesis ([3H]thymidine incorporation) in HUVECs; type: cell-based; conditions: Homo sapiens, HUVEC
Method: (§4) Human umbilical vein endothelial cells (HUVECs) were incubated in the absence of Compound 1 (basal and control) or presence of Compound 1 (with a concentration of […], 0.03 TM, 0.1 TM, 0.3 TM, or 1 TM). Vascular endothelial growth factor (VEGF) or basic fibroblast growth factor (bFGF) was added (except for basal) to induce DNA synthesis, which was detected based on [^3H]thymidine incorporation.

[5] = tested on: bFGF-induced cell proliferation of HUVECs; test: Inhibition of bFGF-induced DNA synthesis ([3H]thymidine incorporation) in HUVECs; type: cell-based; conditions: Homo sapiens, HUVEC
Method: as §4

HUVECs = test: HUVEC growth inhibition assay (crystal violet); type: cell-based; conditions: Homo sapiens; for activity at 30 µM: 72 hours; for inhibition at 30 µM: read-out: Inhibition of HUVECs growth compared with the control
Method: These compounds were tested in a growth inhibition assay using HUVECs as follows. 5×10^3 Human umbilical vein endothelial cells (HUVECs) were seeded in two 96-well plates (Clonetic # CC3162). Each well contains 100 μl of endothelial cell basal medium-2. After 24 hr, 100 μl endothelial cell growth medium-2 containing a test compound was added to each well of the two plates. The cells in the first plate were immediately stained with 0.5% crystal violet in 20% methanol for 10 minutes, rinsed with water, and air-dried. The cells in the second plate were incubated for 72 hours at 37° C. and then stained in the same manner. Each well in the first and second plates was eluted with 1:1 ethanol and 0.1 M sodium citrate, and absorbance of the resulting solution was measured at 540 nm with an ELISA reader.
Basal and control experiments were also conducted according to the above procedure, except that 100 μl endothelial basal medium-2 and 100 μl endothelial growth medium-2 were added to the second plates, respectively, instead of endothelial cell growth medium-2 containing a test compound.
HUVECs growth in each well was compared with that of the basal experiment according to the following equation: % basal=(Asecond plate−Afirst plate)/(Asecond plate of basal−Afirst plate of basal)×100%
where Asecond plate is the absorbance of the solution in the second plate; Afirst plate is the absorbance of the solution in the first plate; Asecond plate of basal is the absorbance of the solution in the second plate of the basal; and Afirst plate of basal is the absorbance of the solution in the first plate of the basal.

[6] = tested on: VEGF-induced angiogenic effect; test: Matrigel plug angiogenesis in nude mice, VEGF; type: in vivo
Method: as §1, §2

[7] = read-out: HUVEC growth, % of Basal
[8] = read-out: HUVEC growth, % of Control

Structure (SMILES)	activity at 30 µM (HUVECs; [7]) [%]	activity at 30 µM (HUVECs; [8]) [%]	inhibition at 30 µM (HUVECs) [%]	also measured
OCc1ccc(-c2nn(Cc3ccccc3)c3ccccc23)o1 [Compound 1, 1-benzyl-3-(5′-hydroxymethyl-2′-furyl)indazole]	92.2 ± 1.8	40.6 ± 0.8	60 to 76	bFGF-induced angiogenic effect, blood vessel growth in Matrigel plug (histology) ([1]; oral 1-100 mg/kg/day for seven days, plug with 150 ng/mL bFGF): effectively inhibited; bFGF-induced angiogenic effect, hemoglobin concentration of plug ([1]; oral, seven days, n=3, FIG. 1): effectively inhibited; Inhibition of VEGF-induced formation of networks of elongated endothelial cells [2]: inhibited; Inhibition of bFGF-induced formation of networks of elongated endothelial cells [3]: inhibited; Life span (medium survival time) relative to control mice (A549 lung tumor cells): about 1.8 times that of control mice; IC50 [4]: 90 nM; IC50 [5]: 140 nM; VEGF-induced angiogenic effect, blood vessel growth in Matrigel plug (histology) ([6]; oral 1-100 mg/kg/day for seven days, plug with 150 ng/mL VEGF): effectively inhibited; VEGF-induced angiogenic effect, hemoglobin concentration of plug ([6]; oral, seven days, n=3, FIG. 1): effectively inhibited
COC(=O)c1ccc(-c2n[nH]c3ccccc23)o1 [Compound 2]	193 ± 11.1	85 ± 4.9	15	–
OCc1ccc(-c2n[nH]c3ccccc23)o1 [Compound 3]	178 ± 14.7	78.4 ± 6.5	22 to 40	–
COC(=O)c1ccc(-c2nn(Cc3ccccc3)c3cc(F)ccc23)o1 [Compound 4]	195 ± 6.5	85.9 ± 2.8	15	–
OCc1ccc(-c2nn(Cc3ccccc3)c3cc(F)ccc23)o1 [Compound 6]	83.9 ± 4	37 ± 1.8	60 to 76	–
Cc1ccc2c(-c3ccc(CO)o3)nn(Cc3ccccc3)c2c1 [Compound 7]	53.9 ± 7.5	23.7 ± 3.3	60 to 76	–
Cc1ccc2c(-c3ccc(C(=O)O)o3)nn(Cc3ccccc3)c2c1 [Compound 8]	163 ± 22.1	71.4 ± 9.7	22 to 40	–
O=C(O)c1cccc(-c2nn(Cc3ccccc3)c3ccccc23)c1 [Compound 9]	172 ± 14.4	75.8 ± 6.3	22 to 40	–
